A short description of series [1]: Acute toxicity (oral, mice, 7 days observation). It counts as in vivo. The settings on record: mouse, in vivo. The procedure, abridged:
(§1)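 Overnight-fasted male ddy mice (20-25 g) received compound orally as a suspension in 0.25% carboxymethylcellulose, observed 7 days. Lethal dose (mg/kg) taken from deaths per mice tested; LD50 given where marked.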

Series [2] relates to ddy strain of male mice. In words: Analgesic activity, acetic acid-induced stretching method. The series is classed as in vivo, mouse (ddy). The following applies: Mus musculus; for ED50: oral, Δ mark, range in parentheses. The method in brief:
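Fasted male mice (20-25 g) received test compound orally, usually 100 mg/kg, as a 0.25% carboxymethylcellulose suspension, then 0.2 ml 0.7% acetic acid i.p. 1 hour later. Stretching was scored and activity given as % inhibition; some values are ED50 (mg/kg).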

In series [3] the test system is ddy strain of male mice. The series is described as follows: Analgesic activity, Haffner method (morphine threshold dose, clamp). The series is classed as in vivo, mouse (ddy). The settings on record: Mus musculus; for ED50: oral, Δ mark, range in parentheses; for inhibition in vivo at 100 mg/kg: 100 mg/kg oral, 45 minutes before morphine hydrochloride. The procedure, abridged:
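Fasted male ddy mice weighing 20-25 g were given the test compound orally as a suspension in 0.25% carboxymethylcellulose. After 45 minutes, a threshold dose (1.5-2.5 mg/kg body weight) of morphine hydrochloride was injected subcutaneously, and clamp-induced pain reactions were watched for 1 hour. Analgesic activity was expressed as inhibitory ratio (%) or as ED50.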

The subject of series [4] is Wistar strain of male rats. The series is described as follows: Anti-pyretic activity (dry-yeast-induced fever). The series is classed as in vivo, rat (Wistar). The following applies: oral (dose not given), up to 4 hours after administration. The method in brief:
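Male Wistar rats (150–180 g), fasted overnight, given 10% dry-yeast suspension subcutaneously (1 ml/100 g). Compound dosed orally as 0.25% CMC suspension 5 h later; body temperature followed, febrile index integrated to 4 h post-dose and expressed as % inhibition.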

Series [5] relates to Wistar strain of male rats. In words: Anti-inflammatory activity (acute carrageenin-induced inflammatory test, hindpaw). The series is classed as in vivo, rat (Wistar). The following applies: Rattus norvegicus, read-out: Anti-inflammatory activity, inflammation inhibitory ratio. Here is the method:
Next, several tests for determining the pharmacological properties, in that acute toxicity, anti-pyretic activity, analgesic activity and anti-inflammatory activity of the present 1,1,3,5-substituted biuret compounds of the formula (1) were conducted and the test results are shown in Table (2). In the tests, each compounds to be tested was used as a suspension in 0.25% carboxymethylcellulose solution. Methods for testing are explained as follows:
According to the method of acute carrageenin-induced inflammatory test [Folia Pharmacologia Japonica, Vol. 56, pp. 575 (1960)], the Wistar strain of male rats (body weight, 150-180 g) were used as test animals. The rats were fasted overnight, 100 mg/kg body weight of the test compound was administered orally, then 1 hour after the administration, 0.1 ml of 1% carrageenin solution, as the inflammation inducing agent, was injected subcutaneously to the hindpaw of the rat and the volume of the hindpaw was measured at time sequences, Anti-inflammatory activity of the test compound was calculated as inflammation inhibitory ratio (%) at 3 hours after the injection of inflammation inducing agent.

The subject of series [6] is ddy strain of male mice. The series is described as follows: Acute toxicity (oral, mice, 7 days observation). It counts as in vivo. The procedure, abridged:
as §1

The mark [7] stands for this setting: oral, male ddy mice, 7 days observation, Δ mark, read-out: 50% lethal dose, LD50.
[8] abbreviates: 100 mg/kg oral, 3 hours after carrageenin.
Setting [9] is: po, read-out: Analgesic activity, acetic acid-induced stretching method, inhibitory ratio.
[10] abbreviates: read-out: Analgesic activity, Haffner method, inhibitory ratio.

Like-named read-outs stand apart in the source and are kept apart here.

As usually defined, the LD50 is the dose expected to kill half of the subjects tested. As usually defined, the ED50 is the dose at which the effect has come halfway, by size or by number of responders. As for `CNC(=O)NC(=O)N(C)c1ccccc1` [Compound No. 49, 1,5-dimethyl-1-phenylbiuret], in series [1] (setting [7]), the LD50 at 168 h was determined as 1600 mg/kg. For the same compound, the values for the ED50 in the series with ddy strain of male mice [2] and in the series with ddy strain of male mice [3] were 34 mg/kg and 86 mg/kg, respectively. Moreover, the “Anti-pyretic activity, inhibitory ratio (febril index)” value in series [4] was determined as 84%. In addition, the inhibition in vivo at 100 mg/kg in series [5] (po, 3 h) is 32%.

Turning to `CNC(=O)N(C)C(=O)N(C)c1ccccc1` [Compound No. 53, 1,3,5-Trimethyl-1-phenylbiuret], the LD50 at 168 h in series [1] (setting [7]) stood at 1350 mg/kg. Moreover, the ED50 was found to be 68 mg/kg in the series with ddy strain of male mice [2] and 135 mg/kg in the series with ddy strain of male mice [3]. In addition, the “Anti-pyretic activity, inhibitory ratio (febril index)” value in series [4] is listed as 108%. In addition, the inhibition in vivo at 100 mg/kg in series [5] (setting [8]) is 76%.

For the compound `CCN(C(=O)N(C)C(=O)NC)c1ccccc1` [Compound No. 58, 1-ethyl-3,5-dimethyl-1-phenylbiuret], in series [1] (setting [7]), the LD50 at 168 h came to 1000 mg/kg. Besides, the inhibition in vivo at 100 mg/kg with ddy strain of male mice [2] (setting [9]) was determined as 75%; with ddy strain of male mice [3] (setting [10]) it was 62.5%; in series [5] (po, 3 h) it was 60%. For the same compound, the “Anti-pyretic activity, inhibitory ratio (febril index)” value in series [4] turned out to be 137%.

As for `CCN(C(=O)N(C)C(=O)NC)c1ccc(OC)cc1` [Compound No. 61, 1-Ethyl-1-(4-methoxyphenyl)-3,5-dimethylbiuret], the LD50 at 168 h in series [1] (setting [7]) amounted to 1250 mg/kg. Besides, the inhibition in vivo at 100 mg/kg in the series with ddy strain of male mice [2] (setting [9]) turned out to be 75%; in the series with ddy strain of male mice [3] (setting [10]) it was 25%; in series [5] (setting [8]), 52%. For the same compound, in series [4], the “Anti-pyretic activity, inhibitory ratio (febril index)” value was found to be 35%.

As to `CNC(=O)N(C(=O)N(C)C)c1ccccc1` [compound 39, 1,1,5-Trimethyl-3-phenylbiuret], the LD50 at 168 h in series [1] (setting [7]) amounted to 93 mg/kg. Further, the inhibition in vivo at 50 mg/kg amounted to 25% with ddy strain of male mice [2] (setting [9]) and 25% in the series with ddy strain of male mice [3] (50 mg/kg oral, read-out: Analgesic activity, Haffner method, inhibitory ratio). Moreover, the inhibition in vivo at 25 mg/kg in series [5] (po, 3 h) came out at 33%.

On to `CN(C)C(=O)N(C(=O)NC1CCCCC1)c1ccccc1` [compound 41, 1,1-Dimethyl-3-phenyl-5-cyclohexylbiuret], for which the LD50 at 168 h in series [1] (setting [7]) turned out to be 1280 mg/kg. Also, the inhibition in vivo at 200 mg/kg in the series with ddy strain of male mice [2] (setting [9]) is 50%. For the same compound, the inhibition in vivo at 100 mg/kg with ddy strain of male mice [3] (setting [10]) amounted to 62.5%.

As for `CCN(C)C(=O)NC(=O)NCc1ccccc1` [compound 44, 1-Methyl-1-ethyl-5-benzylbiuret], the LD50 at 168 h in series [1] (setting [7]) came to 1400 mg/kg. In the series with ddy strain of male mice [2] (200 mg/kg oral, read-out: Analgesic activity, acetic acid-induced stretching method, inhibitory ratio), the inhibition in vivo at 200 mg/kg came out at 87.5%. For the same compound, the inhibition in vivo at 100 mg/kg in series [5] (po, 3 h) was found to be 47%.

Regarding `CCNC(=O)NC(=O)N(C)c1ccccc1` [compound 50, 1-Methyl-1-phenyl-5-ethylbiuret], in series [1] (setting [7]), the LD50 at 168 h was determined as 1960 mg/kg. For the same compound, the inhibition in vivo at 100 mg/kg worked out at 50% with ddy strain of male mice [2] (setting [9]), 37.5% in the series with ddy strain of male mice [3] (setting [10]) and 38% in series [5] (setting [8]). Also, the “Anti-pyretic activity, inhibitory ratio (febril index)” value in series [4] came to 90%.

In the case of `CCCNC(=O)NC(=O)N(C)c1ccccc1` [compound 51, 1-Methyl-1-phenyl-5-n-propylbiuret], the entries for the “Acute toxicity: death number of mice/number of mice tested” value with ddy strain of male mice [6] (500 mg/kg oral) and in the series with ddy strain of male mice [6] (1000 mg/kg oral) were 1/4 and 2/4, respectively. In addition, the inhibition in vivo at 100 mg/kg in the series on ddy strain of male mice [2] (setting [9]) worked out at 37.5%; in the series on ddy strain of male mice [3] (setting [10]) it was 87.5%; in series [5] (po, 3 h) it was 60%. Besides, the “Anti-pyretic activity, inhibitory ratio (febril index)” value in series [4] was 164%.

`CCCCNC(=O)NC(=O)N(C)c1ccccc1` [compound 52, 1-Methyl-1-phenyl-5-n-butylbiuret]: the figures for the “Acute toxicity: death number of mice/number of mice tested” value in the series on ddy strain of male mice [6] (1000 mg/kg oral) and in the series on ddy strain of male mice [6] (2000 mg/kg oral) were 0/4 and 3/4, respectively. Moreover, the inhibition in vivo at 100 mg/kg with ddy strain of male mice [2] (100 mg/kg oral, 1 hour before acetic acid, read-out: Analgesic activity, acetic acid-induced stretching method, inhibitory ratio) came out at 62.5%; with ddy strain of male mice [3] (setting [10]), 50%; in series [5] (setting [8]), 48%. Moreover, the “Anti-pyretic activity, inhibitory ratio (febril index)” value in series [4] is recorded as 104%.

In the case of `CCNC(=O)N(C)C(=O)N(C)c1ccccc1` [compound 54, 1,3-Dimethyl-1-phenyl-5-ethylbiuret], the LD50 at 168 h in series [1] (setting [7]) is 1350 mg/kg. The figures for the inhibition in vivo at 100 mg/kg (in the series with ddy strain of male mice [2] (setting [9]); with ddy strain of male mice [3] (setting [10]); in series [5] (setting [8])) were 37.5%, 75% and 54%, respectively. Further, the “Anti-pyretic activity, inhibitory ratio (febril index)” value in series [4] was found to be 58%.

Turning to `CC(C)NC(=O)N(C)C(=O)N(C)c1ccccc1` [compound 56, 1,3-Dimethyl-1-phenyl-5-isopropylbiuret], in series [1] (setting [7]), the LD50 at 168 h was found to be 1320 mg/kg. The inhibition in vivo at 100 mg/kg in the series with ddy strain of male mice [2] (setting [9]) was determined as 25%; in the series on ddy strain of male mice [3] (setting [10]), 12.5%; in series [5] (po, 3 h) it was 47%. Also, in series [4], the “Anti-pyretic activity, inhibitory ratio (febril index)” value amounted to 65%.

`CCN(C(=O)N(C)C(=O)NC)c1ccccc1Cl` [compound 59, 1-Ethyl-1-(2-chlorophenyl)-3,5-dimethylbiuret]: in series [1] (setting [7]), the LD50 at 168 h came to 810 mg/kg. The inhibition in vivo at 100 mg/kg in the series on ddy strain of male mice [2] (setting [9]) is 37.5%; in the series on ddy strain of male mice [3] (setting [10]) it was 12.5%; in series [5] (po, 2 h), 51%. Besides, the “Anti-pyretic activity, inhibitory ratio (febril index)” value in series [4] amounted to 64%.

For the compound `CCN(C(=O)N(C)C(=O)NC)c1ccc(Cl)cc1` [compound 60, 1-Ethyl-1-(4-chlorophenyl)-3,5-dimethylbiuret], the entries for the “Acute toxicity: death number of mice/number of mice tested” value with ddy strain of male mice [6] (1000 mg/kg oral) and in the series on ddy strain of male mice [6] (2000 mg/kg oral) were 1/4 and 3/4, respectively. Also, the inhibition in vivo at 100 mg/kg with ddy strain of male mice [2] (setting [9]) stood at 75%; with ddy strain of male mice [3] (setting [10]) it was 50%; in series [5] (po, 3 h), 33%. The “Anti-pyretic activity, inhibitory ratio (febril index)” value in series [4] was found to be 88%.

In series [1] (po), `CCN(C(=O)N(C)C(=O)NC)c1ccc(C)cc1` [compound 62] came in with an LD50 at 168 h of 1480 mg/kg. The inhibition in vivo at 100 mg/kg in the series with ddy strain of male mice [2] (setting [9]) turned out to be 62.5%; in the series on ddy strain of male mice [3] (setting [10]), 37.5%. The “Anti-pyretic activity, inhibitory ratio (febril index)” value in series [4] was determined as 18%.

For `CCCN(C(=O)N(C)C(=O)NC)c1ccccc1` [compound 63, 1-n-Propyl-1-phenyl-3,5-dimethylbiuret], the “Acute toxicity: death number of mice/number of mice tested” value is listed as 3/4 in the series with ddy strain of male mice [6] (1000 mg/kg oral) and 4/4 with ddy strain of male mice [6] (2000 mg/kg oral). Also, the inhibition in vivo at 100 mg/kg worked out at 50% in the series on ddy strain of male mice [2] (setting [9]), 50% in the series with ddy strain of male mice [3] (setting [10]) and 58% in series [5] (setting [8]). Besides, in series [4], the “Anti-pyretic activity, inhibitory ratio (febril index)” value worked out at 76%.

With `CCCCN(C(=O)N(C)C(=O)NC)c1ccccc1` [compound 64, 1-n-Butyl-1-phenyl-3,5-dimethylbiuret], the figures for the “Acute toxicity: death number of mice/number of mice tested” value with ddy strain of male mice [6] (500 mg/kg oral) and with ddy strain of male mice [6] (1000 mg/kg oral) were 1/4 and 2/4, respectively. Also, the inhibition in vivo at 100 mg/kg in the series with ddy strain of male mice [2] (setting [9]) worked out at 25%; in the series on ddy strain of male mice [3] (setting [10]), 37.5%; in series [5] (po, 3 h), 43%. The “Anti-pyretic activity, inhibitory ratio (febril index)” value in series [4] was 50%.

Consider `CN(C(=O)Nc1ccccc1)C(=O)N1CCCCC1` [compound 70, 1,1-Pentamethylene-3-methyl-5-phenylbiuret], for which, in series [1] (setting [7]), the LD50 at 168 h came out at 515 mg/kg. Moreover, the inhibition in vivo at 100 mg/kg in the series on ddy strain of male mice [2] (setting [9]) was 62.5%; in the series with ddy strain of male mice [3] (setting [10]) it was 37.5%.

The values are drawn from patent US4371544A, “Pharmaceutical composition containing 1,1,3,5-substituted biuret compound” (Taiho Pharmaceutical Company Limited, priority 1979, dated 1983).
